Source: patent publication US7271153B2, “Nitrogenous heterocyclic derivatives, medicinal compositions containing the same, medicinal uses thereof, and intermediates therefor” (Kissei Pharmaceutical Co., Ltd., priority 2001, dated 2007)
pIC50: −log10 of the molar value.

Target: T1, human SGLT2 (Homo sapiens, UniProt P31639, I433V)
T1 construct: expressed in transfected cells; host or cells: COS-7 cells (RIKEN CELL BANK RCB0539), transient electroporation with plasmid KL29
T1 sequence (P31639 1-672 I433V): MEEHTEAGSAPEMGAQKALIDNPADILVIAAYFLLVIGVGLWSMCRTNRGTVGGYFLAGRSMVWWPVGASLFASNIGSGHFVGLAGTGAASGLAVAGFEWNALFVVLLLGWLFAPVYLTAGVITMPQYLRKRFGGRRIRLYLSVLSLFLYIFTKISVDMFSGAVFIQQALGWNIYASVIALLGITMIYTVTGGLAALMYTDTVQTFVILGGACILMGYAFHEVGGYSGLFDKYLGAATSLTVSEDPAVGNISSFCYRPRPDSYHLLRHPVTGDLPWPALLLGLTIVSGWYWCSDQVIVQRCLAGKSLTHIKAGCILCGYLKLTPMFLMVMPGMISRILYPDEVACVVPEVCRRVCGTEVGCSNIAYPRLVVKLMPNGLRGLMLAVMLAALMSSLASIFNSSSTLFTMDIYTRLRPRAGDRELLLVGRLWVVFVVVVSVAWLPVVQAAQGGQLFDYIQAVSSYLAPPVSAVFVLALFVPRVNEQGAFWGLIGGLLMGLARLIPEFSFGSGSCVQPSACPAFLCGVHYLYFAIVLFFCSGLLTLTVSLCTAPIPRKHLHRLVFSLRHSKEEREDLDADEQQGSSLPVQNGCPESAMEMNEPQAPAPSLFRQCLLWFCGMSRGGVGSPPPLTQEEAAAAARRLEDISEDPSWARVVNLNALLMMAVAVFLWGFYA
Experiment: Assay for inhibitory effect on human SGLT2 activity (uptake of methyl-α-D-glucopyranoside in COS-7 cells expressing transiently human SGLT2)
Type: cell-based
Conditions: methyl-α-D-(U-14C)glucopyranoside uptake, 37° C., 2 hours, read-out: IC50 (concentration at which 50% of methyl-α-D-glucopyranoside uptake was inhibited)
Description: Assay for Inhibitory Effect on Human SGLT2 Activity
1) Construction of the Plasmid Vector Expressing Human SGLT2
Preparation of the cDNA library for PCR amplification was performed by reverse transcription of a total RNA deprived from human kidney (Ori gene) with oligo dT as the primer, using SUPERSCRIPT Preamplification System (Gibco-BRL: LIFE TECHNOLOGIES). The DNA fragment coding for human SGLT2 was amplified by the PCR reaction using Pfu DNA Polymerase (made by Stratagene), in which the human kidney cDNA library described above was used as the template and the following oligo nucleotides 0702F and 0712R, presented as Sequence Numbers 1 and 2 respectively, were used as the primers. The amplified DNA fragment was ligated into pCR-Blunt (Invitrogen), a vector for cloning, according to standard method of the kit. The Escherichia coli HB101 Competent Cell (made by TOYOBO Co., Ltd.) was transformed according to usual method and then selection of the transformants was performed on the LB agar medium containing 50 μg/mL of kanamycin. After plasmid DNA was extracted and purified from the one of the transformants, amplifying of the DNA fragment coding for human SGLT2 was performed by the PCR reaction using Pfu DNA Polymerase (made by Stratagene), in which the following oligo nucleotides 0714F and 0715R, presented as Sequence Numbers 3 and 4 respectively, were used as the primers. The amplified DNA fragment was digested with restriction enzymes, Xho I and Hind III, and then purified with Wizard Purification System (Promega). This purified DNA fragment was inserted at the corresponding restriction sites of pcDNA3.1 (−) Myc/His—A (Invitrogen), avector for expressing of fusion protein. The Escherichia coli HB101 Competent Cell (made by TOYOBO Co., Ltd.) was transformed according to usual method and then selection of the transformant was performed on the LB agar medium containing 100 μg/mL of ampicillin. After plasmid DNA was extracted and purified from this transformant, the base sequence of the DNA fragment inserted at the multi-cloning sites of the vector pcDNA3.1 (−) Myc/His—A was analyzed. […] Sequentially, a clone in which valine is substituted for isoleucine-433 was obtained. This plasmid-vector expressing human SGLT2 in which the peptide presented as Sequence Number 5 is fused to the carboxyl terminal alanine residue was designated KL29.
2) Preparation of the Cells Expressing Transiently Human SGLT2
KL29, the plasmid coding human SGLT2, was transfected into COS-7 cells (RIKEN CELL BANK RCB0539) by electroporation. Electroporation was performed with GENE PULSER II (Bio-Rad Laboratories) under the condition: 0.290 kV, 975 μF, 2×10^6 cells of COS-7 cell and 20 μg of KL29 in 500 μL of OPTI-MEM I medium (Gibco-BRL: LIFE TECHNOLOGIES) in the 0.4 cm type cuvette. […]

pIC50	SMILES
7.35	Cc1cc(C)c(Cc2ccc(CCO)cc2)c(O[C@@H]2O[C@H](CO)[C@@H](O)[C@H](O)[C@H]2O)n1 [Example 20, 2-(β-D-Glucopyranosyloxy)-3-[4-(2-hydroxyethyl)benzyl]-4,6-dimethylpyridine]
7.26	COc1ccc(Cc2c(C)cc(OC)nc2O[C@@H]2O[C@H](CO)[C@@H](O)[C@H](O)[C@H]2O)cc1 [Example 21, 2-(β-D-Glucopyranosyloxy)-6-methoxy-3-(4-methoxybenzyl)-4-methylpyridine]
7.35	COc1ccc(Cc2c(C)cc(C)nc2O[C@@H]2O[C@H](CO)[C@@H](O)[C@H](O)[C@H]2O)cc1 [Example 19, 2-(β-D-Glucopyranosyloxy)-3-(4-methoxybenzyl)-4,6-dimethyl-pyridine]
7.39	CCc1ccc(Cc2c(C)cc(C)nc2O[C@@H]2O[C@H](CO)[C@@H](O)[C@H](O)[C@H]2O)cc1 [Example 18, 3-(4-Ethylbenzyl)-2-(β-D-glucopyranosyloxy)-4,6-dimethyl-pyridine]
